Measurements taken from patent US10759794B2, “2-phenyl-3-(piperazinomethyl)imidazo[1,2-A]pyridine derivatives as blockers of task-1 and task-2 channels, for the treatment of sleep-related breathing disorders” (BAYER PHARMA AKTIENGESELLSCHAFT, priority 2015, dated 2020).

Experiments:
Format in all cases: cell-based
human TASK-1 [1] = target: T1, human TASK-1 (Homo sapiens (Human), UniProt O14649); experiment: Inhibition of recombinant TASK-1 in stably transfected CHO cells (voltage-sensitive dye, FLIPR); settings: depolarization induced by 40 mM potassium chloride, Table 2A
T1 sequence (O14649 whole entry): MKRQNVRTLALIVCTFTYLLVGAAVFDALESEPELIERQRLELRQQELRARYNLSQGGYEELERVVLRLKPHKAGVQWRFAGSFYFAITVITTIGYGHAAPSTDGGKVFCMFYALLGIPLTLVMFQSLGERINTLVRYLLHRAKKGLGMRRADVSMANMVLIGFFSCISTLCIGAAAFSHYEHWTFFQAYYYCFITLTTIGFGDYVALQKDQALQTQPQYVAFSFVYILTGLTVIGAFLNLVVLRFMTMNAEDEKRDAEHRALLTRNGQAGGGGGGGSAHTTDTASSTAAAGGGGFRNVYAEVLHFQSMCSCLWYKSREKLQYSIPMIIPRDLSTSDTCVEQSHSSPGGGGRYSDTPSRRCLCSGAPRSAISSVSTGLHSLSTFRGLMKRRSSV
Procedure: (§1) B-2. Inhibition of Recombinant TASK-1 and TASK-3 In Vitro
(§2) The investigations on the inhibition of the recombinant TASK-1 and TASK-3 channels were carried out using stably transfected CHO cells. Here, the compounds according to the invention were tested with administration of 40 mM of potassium chloride in the presence of a voltage-sensitive dye using the method described in detail in the following references [Whiteaker et al., Validation of FLIPR membrane potential dye for high-throughput screening of potassium channel modulators, J. Biomol. Screen. 6 (5), 305-312 (2001); Molecular Devices FLIPR Application Note: Measuring membrane potential using the FLIPR® membrane potential assay kit on Fluorometric Imaging Plate Reader (FLIPR®) systems, http://www.moleculardevices.com/reagents-supplies/assay-kits/ion-channels/flipr-membrane-potential-assay-kits]. The activity of the test substances was determined as their ability to inhibit a depolarization induced in the recombinant cells by 40 mM potassium chloride. The concentration which can block half of this depolarization is referred to as IC50.

human TASK-3 [2] = target: T2, human TASK-3 (Homo sapiens (Human), UniProt Q9NPC2); experiment: Inhibition of recombinant TASK-3 in stably transfected CHO cells (voltage-sensitive dye, FLIPR); settings: depolarization induced by 40 mM potassium chloride, Table 2A
T2 sequence (Q9NPC2 whole entry): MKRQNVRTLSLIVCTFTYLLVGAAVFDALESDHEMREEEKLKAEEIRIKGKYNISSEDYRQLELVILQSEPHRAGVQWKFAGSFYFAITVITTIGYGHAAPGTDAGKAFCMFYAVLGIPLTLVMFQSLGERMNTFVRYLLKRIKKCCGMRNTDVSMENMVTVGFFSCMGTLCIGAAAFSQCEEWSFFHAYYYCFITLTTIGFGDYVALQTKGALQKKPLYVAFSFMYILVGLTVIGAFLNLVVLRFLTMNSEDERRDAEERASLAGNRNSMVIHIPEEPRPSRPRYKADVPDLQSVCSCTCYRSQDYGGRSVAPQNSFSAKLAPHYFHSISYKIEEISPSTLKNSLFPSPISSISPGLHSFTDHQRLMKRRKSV
Procedure: as §1, §2

human TASK-1 [3] = target: T1, human TASK-1; experiment: Two-electrode voltage clamp analysis of human TASK-1 channels in Xenopus laevis oocytes; settings: Xenopus laevis oocytes, two-electrode voltage clamp, room temperature; Table 1A
Procedure: (§3) B-1. In Vitro Electrophysiological Analysis of the Human TASK-1 and TASK-3 Channels Via Two-Electrode Voltage Clamp Technique in Xenopus laevis Oocytes
(§4) Xenopus laevis oocytes were selected as described elsewhere in an exemplary manner [Decher et al., FEBS Lett. 492, 84-89 (2001)]. Subsequently, the oocytes were injected with 0.5-5 ng of a cRNA solution coding for TASK-1 or TASK-3. For the electrophysiological analysis of the channel proteins expressed in the oocytes, the two-electrode voltage clamp technique [Stühmer, Methods Enzymol. 207, 319-339 (1992)] was used. The measurements were carried out as described [Decher et al., FEBS Lett. 492, 84-89 (2001)] at room temperature (21-22° C.) using a Turbo TEC 10CD amplifier (NPI), recorded at 2 kHz and filtered with 0.4 kHz. Substance administration was performed using a gravitation-driven perfusion system. Here, the oocyte is located in a measuring chamber and exposed to the solvent stream of 10 ml/min. The level in the measuring chamber is monitored and regulated by sucking off the solution using a peristaltic pump.

human TASK-3 [4] = target: T2, human TASK-3; experiment: Two-electrode voltage clamp analysis of human TASK-3 channels in Xenopus laevis oocytes; settings: Xenopus laevis oocytes, two-electrode voltage clamp, room temperature; Table 1A
Procedure: as §3, §4

SMILES	IC50 (human TASK-1 [1]) [nM]	IC50 (human TASK-3 [2]) [nM]	IC50 (human TASK-1 [3]) [nM]	IC50 (human TASK-3 [4]) [nM]
N#Cc1ccccc1C(=O)N1CCN(Cc2c(-c3ccc(Cl)cc3)nc3ccccn23)CC1 [Example 32]	430	130		
O=C(c1ccccc1F)N1CCN(Cc2c(-c3ccc(Cl)cc3)nc3ccccn23)CC1 [Example 7, (4-{[2-(4-Chlorophenyl)imidazo [1,2-a]pyridin-3-yl]methyl}piperazin-1-yl)(2-fluorophenyl)methanone]	350	98		
CC(C)c1ccc(-c2nc3ccccn3c2CN2CCN(C(=O)c3ccccc3F)CC2)cc1 [Example 53]	2840	1000		
COc1ccc(F)c(C(=O)N2CCN(Cc3c(-c4ccc(Cl)cc4)nc4ccccn34)CC2)n1 [Example 68, (4-{[2-(4-Chlorophenyl)imidazo[1,2-a]pyridin-3-yl]methyl}piperazin-1-yl)(3-fluoro-6-methoxypyridin-2-yl)methanone]	93	5.2		
O=C(c1ccccc1Cl)N1CCN(Cc2c(-c3ccc(Cl)cc3)nc3ccccn23)CC1 [Example 37]	370	60		
COc1cccc(C(=O)N2CCN(Cc3c(-c4ccc(Br)cc4)nc4ccccn34)CC2)n1 [Example 47]	140	18	4.9 ± 0.4	2.3 ± 0.3
O=C(c1ccccc1F)N1CCN(Cc2c(-c3ccc(C4CC4)cc3)nc3ccccn23)CC1 [Example 69, (4-{[2-(4-Cyclopropylphenyl)imidazo[1,2-a]pyridin-3-yl]methyl}piperazin-1-yl)(2-fluorophenyl)methanone]	66	11		
COc1ccc(Br)c(C(=O)N2CCN(Cc3c(-c4ccc(Cl)cc4)nc4ccccn34)CC2)n1 [Example 42]	310	13		
COc1cccc(C(=O)N2CCN(Cc3c(-c4ccc(Cl)cc4)nc4ccccn34)CC2)n1 [Example 3, (4-{[2-(4-Chlorophenyl)imidazo [1,2-a]pyridin-3-yl]methyl}piperazin-1-yl)(6-methoxypyridin-2-yl)methanone]	139	28	4.2 ± 0.6	27.9 ± 4
O=C(C1CCC1)N1CCN(Cc2c(-c3ccc(F)cc3)nc3ccccn23)CC1 [Example 49]	1830	1700		
O=C(c1ccccn1)N1CCN(Cc2c(-c3ccc(Cl)cc3)nc3ccccn23)CC1 [Example 26]	708	590		
N#Cc1ccc(-c2nc3ccccn3c2CN2CCN(C(=O)C3CCCC3)CC2)cc1 [Example 62]	1200	3100		
O=C(c1cc(F)ccc1Cl)N1CCN(Cc2c(-c3ccc(Br)cc3)nc3ccccn23)CC1 [Example 6, (4-{[2-(4-Bromophenyl)imidazo[1,2-a]pyridin-3-yl]methyl}piperazin-1-yl)(2-chloro-5-fluorophenyl)methanone]	500	360		
Cc1ccccc1C(=O)N1CCN(Cc2c(-c3ccc(Br)cc3)nc3ccccn23)CC1 [Example 14]	481	310		
